Assay results: patent publication US20040137426A1, “Gp41 peptides and methods based thereon for inhibiting HIV fusion to target cells” (priority 2002, published 2004)
In brackets after ≈: the same amount, converted by molar mass.

Experiments:
[1] = tested on: HIV-1 IIIB; assay type: cell-based; conditions: lab-adapted HIV-1 IIIB
Experimental: Both involved the culture of the virus with the peptide or its scrambled form for 1 hr at 37° C., 5% CO2 and then subsequent addition of target cells for 7 days. Inhibition was assessed using an enzyme-linked immunosorbent assay (ELISA) of viral core protein p24 antigen.

[2] = tested on: JRCSF; assay: Primary isolate infectivity in peripheral blood lymphocytes, p24 ELISA: JRCSF; assay type: cell-based, HIV-1
Experimental: (§1) Infectivity studies were performed using the inhibition of HIV-1 infection of the gp41 derived peptides using receptor bearing cells for both HIV-1 T cell line adapted virus (HIV-1 IIIB) in MT2 cells and primary isolate virus (SF162, JRCSF and 89.6) in peripheral blood lymphocytes. Both involved the culture of the virus with the peptide or its scrambled form for 1 hr at 37° C., 5% CO2 and then subsequent addition of target cells for 7 days. Inhibition was assessed using an enzyme-linked immunosorbent assay (ELISA) of viral core protein p24 antigen.

[3] = tested on: 89.6; assay: Primary isolate infectivity in peripheral blood lymphocytes, p24 ELISA: 89.6; assay type: cell-based, HIV-1; conditions: primary isolate 89.6
Experimental: as §1

[4] = tested on: SF162; assay: Primary isolate infectivity in peripheral blood lymphocytes, p24 ELISA: SF162; assay type: cell-based, HIV-1
Experimental: as §1

[5] = tested on: BR94; assay: Primary isolate infectivity in PBMCs: patient isolate BR94 (clade B); assay type: cell-based, HIV-1
[6] = tested on: HIV-1; conditions: qualitative comparison
Experimental: Peptides were tested in vitro for inhibition of early steps in cell-free HIV-1 infection and direct cell-to-cell spread of virus using T-cell line-adapted and primary isolates and recombinant HIV-1 viruses pseudotyped for env using CCR5, CXCR4 or both coreceptors.
Selected de novo designed peptides according to the invention (S291, N36E, W37Q and W371) and the new analogues of T20, T21 and DP219 were evaluated for inhibition of both cell-free HIV-1 infection and of direct cell-to-cell spread using a range of T-cell line-adapted and primary isolates and recombinant HIV-1 pseudotyped for env derived from patient isolates of different clades.

CC[C@H](C)[C@H](NC(=O)[C@H](CC(C)C)NC(=O)[C@H](CO)NC(=O)[C@H](Cc1ccc(O)cc1)NC(=O)[C@@H](NC(=O)[C@H](CC(C)C)NC(=O)[C@H](CO)NC(=O)[C@@H](NC(=O)[C@H](Cc1ccc(O)cc1)NC(=O)[C@H](CC(N)=O)NC(=O)[C@H](CC(=O)O)NC(=O)[C@@H](NC(=O)[C@H](CCC(=O)O)NC(=O)[C@H](CCCNC(=N)N)NC(=O)[C@H](CCC(=O)O)NC(=O)[C@H](Cc1c[nH]c2ccccc12)NC(=O)[C@H](CCC(=O)O)NC(=O)[C@H](CCSC)NC(=O)[C@H](Cc1c[nH]c2ccccc12)NC(=O)[C@@H](NC(=O)[C@H](CCSC)NC(=O)[C@H](CC(N)=O)NC(=O)[C@H](CC(N)=O)NC(=O)[C@H](Cc1c[nH]c2ccccc12)NC(=O)[C@@H](NC(=O)[C@H](CCC(N)=O)NC(=O)[C@H](CCC(=O)O)NC(=O)[C@H](CC(C)C)NC(=O)[C@@H](N)CO)[C@@H](C)CC)[C@@H](C)O)[C@@H](C)CC)[C@@H](C)O)[C@@H](C)CC)C(=O)O [Peptide S29I]
ID50% HIV-1IIIB infectivity [1]: 9.37 µg/mL (≈ 2.55 µM) | ID90 HIV-1IIIB infectivity [1]: 25 µg/mL (≈ 6.8 µM) | MIC HIV-1IIIB infectivity [1]: 6.3 µg/mL (≈ 1.71 µM) | Primary isolate (ID50) JRCSF [2]: >50 µg/mL | Primary isolate (ID50) 89.6 [3]: 50 µg/mL | Primary isolate (ID50) SF162 [4]: 0.06 µg/mL | Primary isolate (ID50) BR94 [5]: 0 µg/mL | activity compared with the new analogues of T-20, T-21 and DP219 [6]: broadly similar levels of activity
